Measurements from article PMC11165727, “Improvement effects of a novel Chinese herbal formula in imiquimod and IL-23-stimulated mouse models of psoriasis” (Chinese Medicine, 2024).

Tests used:
[1] = Pharmacokinetics of ISDF in rats: baicalin in plasma; type: in vivo, Sprague–Dawley rats; settings: oral ISDF 18.90 g/kg
Protocol: The rats were split into two groups, with 6 animals each: (a) an untreated control group, and (b) a group that received ISDF at a dosage of 18.90 g/kg. The rats were fasted overnight but had access to distilled water. Blood samples, around 0.4 mL, were harvested from the orbital bleeding while they were under anaesthesia with isoflurane. The blood samples were collected at several time points (5, 15, 30, 60, 120, 240, 480, and 1440 min) after the oral administration of ISDF to the rats. The blood was then centrifuged at 5000 rpm for 20 min (at 4 °C) to separate the plasma (upper) and blood cells (lower). The plasma (0.2 mL) was added with […] KH2PO4 (0.2 mL) and 1 mL methanol and acetonitrile (1:1) and vortexed for 10 min to precipitate protein, and then centrifugated at 10,000 rpm for five min to collect the supernatant. The supernatant was filtered, dried under nitrogen and then re-dissolved in methanol (0.2 mL) and stored at 4 °C [18]. The HPLC method was used to identify and quantify baicalin in plasma and berberine in erythrocytes, as previously published. All the data were shown as mean ± SEM. One-way ANOVA followed by the Bonferroni test was performed using GraphPad Prism v9.0. Statistical significance between experimental groups was considered when p < 0.05. The pharmacokinetics profile of ISDF was calculated using Drug and Statistics (DAS, China) software v2.0.

[2] = Pharmacokinetics of ISDF in rats: berberine in erythrocytes; type: in vivo, Sprague–Dawley rats; settings: oral ISDF 18.90 g/kg
Protocol: The rats were split into two groups, with 6 animals each: (a) an untreated control group, and (b) a group that received ISDF at a dosage of 18.90 g/kg. The rats were fasted overnight but had access to distilled water. Blood samples, around 0.4 mL, were harvested from the orbital bleeding while they were under anaesthesia with isoflurane. The blood samples were collected at several time points (5, 15, 30, 60, 120, 240, 480, and 1440 min) after the oral administration of ISDF to the rats. The blood was then centrifuged at 5000 rpm for 20 min (at 4 °C) to separate the plasma (upper) and blood cells (lower). The blood cells were washed thrice with cold 0.9% saline, and then centrifuged at 3500 rpm for five min. The resulting erythrocytes were suspended in cold 0.9% saline (0.5 mL). Afterwards, the erythrocytes were mixed with an equal volume of 15% hydrochloric acid and heated at 60 ℃ for 6 h. They were then centrifugated at 12,000 rpm for 10 min to collect the supernatant, which was filtered and dried under nitrogen. Finally, it was re-dissolved with 0.2 mL methanol. The HPLC method was used to identify and quantify baicalin in plasma and berberine in erythrocytes, as previously published. All the data were shown as mean ± SEM. One-way ANOVA followed by the Bonferroni test was performed using GraphPad Prism v9.0. Statistical significance between experimental groups was considered when p < 0.05. The pharmacokinetics profile of ISDF was calculated using Drug and Statistics (DAS, China) software v2.0.

[3] = test system: IMQ-induced mouse psoriasis model; test: IMQ-induced mouse psoriasis model: body weight, dorsal skin thickness, PASI, epidermal thickness; type: in vivo, Balb/c mice
Protocol: (§1) A total of 48 Balb/c mice were randomly assigned to: (a) normal control group (NC); (b) IMQ group; (c) IMQ plus dexamethasone (DXM, as the positive control, 3 mg/kg) group; and (d-f) IMQ plus ISDF (3.15, 6.30 and 9.45 g/kg) groups. All mice, except the NC group, were topically dosed with 62.5 mg Aldara (iNova pharmaceuticals, Australia) daily on the shaved dorsal skin. After the seven-day sensitization of IMQ, the psoriasis symptoms appeared on the dorsal area. Between day 8 and day 22, Aldara cream was applied once every three days for a total of six applications, with each application consisting of 62.5 mg of the cream being applied to the same area. ISDF and DXM were suspended in 0.5% CMC-Na and orally given to the mice once daily for two weeks. Treatments were initiated seven days after the first IMQ sensitization. The mice in the NC group and the IMQ group were administered with only the vehicle for two weeks. (Fig. 1A).
(§2) The severity of psoriatic lesions on the dorsal area of mice was assessed by psoriasis area and severity index (PASI). The researcher scored the degree of erythema and skin scaling on a scale of zero to four, where 0: no symptoms, 1: slight, 2: moderate, 3: severe, and 4: very severe. The dorsal skin thickness was measured using an electronic vernier caliper which was placed on the middle line of the dorsal area.
(§3) The dorsal skin tissues were harvested and fixed in 4% paraformaldehyde (PFA) for one day and then embedded in paraffin, followed by section, deparaffinization and rehydration. Five-micrometre sections of dorsal skin were stained with hematoxylin & eosin and observed through a light microscope (Zeiss AxioObserver Z1, Germany) to assess histopathological changes.

[4] = test system: IL-17A, IL-22, IL-6, IL-4; test: ELISA of inflammatory cytokines in serum and dorsal skin of IMQ-induced mice; type: in vivo, Balb/c mice; settings: IMQ model; DXM 3 mg/kg oral; vs IMQ group
Protocol: as §1
(§4) After the last drug treatment, blood samples were harvested and stored at room temperature for one hour, and then centrifuged at 3500 rpm for 20 min. The ELISA kits were used to collect the supernatant and determine the contents of IL-17A (ab199081), IL-22 (ab223857), IL-6 (ab222503) (Abcam, USA) and IL-23 (BMS6017, Thermo Fisher Scientific, USA). After being sacrificed, mouse skin tissues were collected, homogenized with cell extract buffer from Abcam, USA, and centrifuged at 12,000 rpm for 30 min (at 4 °C). The skin samples were analyzed for total protein contents using a […] assay kit. The concentrations of IL-4, IL-17A, IL-22 and IL-23 in the supernatant were determined.

[5] = test system: gene expression of IL-4, IL-6, IL-1β and TNF-α; test: Real-time PCR on dorsal skin tissues of IMQ-induced mice; type: in vivo, Balb/c mice; settings: IMQ model; DXM 3 mg/kg oral
Protocol: as §1
The same experimental procedure was used as described in our previous study. In the present study, we conducted Mouse TaqMan gene expression assays using the following assay IDs: IL-4 (Mm00445259_m1), IL-6 (Mm00446190_m1), IL-1β (Mm00434228_m1), TNF-α (Mm00443258_m1) and β-actin (Mm02619580_g1).

[6] = test system: IL-23-induced mouse psoriasis model; test: IL-23-induced mouse psoriasis model: body weight, dorsal skin thickness, PASI, epidermal thickness; type: in vivo, C57 mice; settings: IL-23 model, DXM 3 mg/kg oral
Protocol: (§5) A total of 48 C57 mice were randomly assigned to: (a) NC group; (b) IL-23 group; (c) IL-23 plus DXM (3 mg/kg) group; and (d–f) IL-23 plus ISDF (3.15, 6.30 and 9.45 g/kg) groups. Firstly, mice were pre-treated with ISDF or DXM before IL-23 injection. 0.5% CMC-Na was used to suspend ISDF and DXM which were orally given to mice once daily for two weeks, and the mice in the NC group and the IL-23 group were treated with only the vehicle for two weeks. The IL-23 administration was initiated 7 days post the first ISDF/DXM treatment. From day 8, mice concurrently orally received with ISDF/DXM treatment and intradermal injections of recombinant mouse IL-23 (Biolegend, USA) in two locations on the shaved dorsal skin at 1 μg/mouse/day using a 30-gauge needle for seven days. Sterile saline was used as the vehicle control for the NC group. After the seven-day sensitization of IL-23, the psoriasis symptoms appeared on the dorsal area of the mice. The weight of the mice and their dorsal skin thickness was monitored (on day 1, 7, and 14). On the last day, the scoring of the skin psoriasis severity was determined according to PASI after the last drug treatment (Fig. 2A).
as §2, §3

IL-17A, IL-22, IL-23 = test: ELISA of cytokines in serum and injected skin of IL-23-induced mice; type: in vivo, C57 mice; settings: IL-23 model; DXM 3 mg/kg oral; vs IL-23 group
Protocol: as §5, §4

[7] = Sprague-Dawley, rat, 18.9 g/kg, read-out: Area under the curve (AUC0-∞)
[8] = Sprague-Dawley, rat, 18.9 g/kg, read-out: Mean residence time (MRT0-t)
[9] = Sprague-Dawley, rat, 18.9 g/kg, read-out: The maximum concentration (Cmax)

Q: With `O=C(O)[C@H]1O[C@@H](Oc2cc3oc(-c4ccccc4)cc(=O)c3c(O)c2O)[C@H](O)[C@@H](O)[C@@H]1O` [Baicalin, baicalin] as the compound, how does the AUC(0-inf) [1, 7] read?
A: Its AUC(0-inf) is 10000 ± 810 ng·h/mL.

Q: What about the MRT last [1, 8] of the same compound?
A: The MRT last was 7.98 ± 0.61 h.

Q: What about the Cmax [1, 9] of the same compound?
A: The Cmax was 670 ± 60 ng/mL.

Q: What about the “The time required for drug concentration to decrease by 50% (t1/2)” value [1] of the same compound?
A: The value was 14.06 ± 3.25 h.

Q: And the “Time to reach Cmax (Tmax)” value [1]?
A: Its value is 2.01 ± 0.28 h.

Q: With `COc1ccc2cc3[n+](cc2c1OC)CCc1cc2c(cc1-3)OCO2` [Berberine, berberine] as the compound, how does the AUC(0-inf) [2, 7] read?
A: Its AUC(0-inf) is 24200 ± 17400 ng·h/mL.

Q: What about the MRT last [2, 8] of the same compound?
A: The MRT last was 9.24 ± 1.31 h.

Q: And the Cmax [2, 9]?
A: Its Cmax is 1440 ± 710 ng/mL.

Q: And the “The time required for drug concentration to decrease by 50% (t1/2)” value [2]?
A: The value was 10.77 ± 5.80 h.

Q: What about the “Time to reach Cmax (Tmax)” value [2] of the same compound?
A: The value was 2.33 ± 1.52 h.

Q: Which results are given for `C[C@@H]1C[C@H]2[C@@H]3CCC4=CC(=O)C=C[C@]4(C)[C@@]3(F)[C@@H](O)C[C@]2(C)[C@@]1(O)C(=O)CO` [DXM, dexamethasone]?
A: Body weight ([3]; DXM 3 mg/kg oral once daily, days 14 and 21, vs NC group): remarkable decrease; Decrease in PASI score ([3]; DXM 3 mg/kg oral, day 21, vs IMQ group): 79.41%; Reduction of dorsal skin thickness ([3]; DXM 3 mg/kg oral, two-week treatment, vs IMQ group): 51.69%; Decrease of epidermal thickness ([3]; DXM 3 mg/kg oral, vs IMQ group): 52.75%; Decrease of serum IL-17A [4]: 91.29%; Reduction of IL-17A content in dorsal skin [4]: 75.98%; Reduction of serum IL-6 [4]: 88.91%; Reduction of serum IL-22 [4]: 67.47%; Gene expression of IL-4, IL-6, IL-1β and TNF-α in skin [5]: substantially down-regulate; Body weight [6]: significantly induced a body weight reduction; Decrease of dorsal skin thickness ([6]; day 14, vs IL-23 group): 55.14%; Reduction of PASI score ([6]; day 14, vs IL-23 group): 85.24%; Decrease of epidermal thickness ([6]; vs IL-23 group): 72.26%; Decrease of IL-23 level in the injected skin (IL-17A, IL-22, IL-23): 43.34%; Reduction of serum IL-17A (IL-17A, IL-22, IL-23): 62.20%; Reduction of serum IL-22 content (IL-17A, IL-22, IL-23): 39.12%
